Where “and” joins values, the source holds several entries; their conditions need not be identical. Equal entries are not always repeated.
Assays:
Assay type in all cases: biochemical
[1] = Suture testing in aqueous suspension of CaSt
Protocol: Treatment of sutures in aqueous suspensions of CaSt was performed as follows: Suture used was VICRYL® (Polyglactin 910) suture made of a copolymer made from 90% glycolide and 10% L-lactide, Size 1, 27 inch pieces. Endotoxin sources used were sitting (or stagnant) Rain Water (SRW) and diluted with LRW to obtain a concentration of (3980 EU/mL). Endosafe LAL Reagent Water (LRW) was used, manufactured by Charles River Laboratories, Charleston S.C.
Eight strands of suture were placed in tubing with LPS (endotoxin) solution for 10 minutes at a time. The sutures were dried for 20 minutes and then placed in round bottom tubes. Suspensions of 5% by weight CaSt in LAL Reagent Water were prepared. (0.5 g CaSt in 10 mL LRW). One suture was placed in each tube and vortexed in this solution for approximately 10 seconds. The sutures were removed and allowed to dry for 20 minutes and then placed in round bottom tubes. This was done for 3 sutures. Three pieces of suture, serving as the control, were not submerged in any solutions and placed in test tubes. 3 mL of LAL reagent water was added to each test tube, vortexed vigorously for 1 minute, and then placed in a hot water bath at 37° C. for 1 hour. They were then removed, vortexed vigorously for 1 minute, diluted, and tested on the MCS system. The water that was mixed with the calcium stearate was also tested. Two sutures were submerged in LRW that was mixed with calcium stearate. The LRW was separated from the calcium stearate before two sutures were submerged. These were also tested for endotoxin on the MCS.

[2] = Suture testing in Ethyl Acetate containing CaSt; details: contaminated suture in Ethyl Acetate w/ 5% Calcium Stearate, 10 seconds; Ethyl Acetate alone 80.4 EU, no submersion 105.6 EU
Protocol: An absorbable VICRYL® (Polyglactin 910) suture (Size 1, Length: 27 in) made of a copolymer made from 90% glycolide and 10% L-lactide was exposed to a solution containing LPS (endotoxin) (9 Strands of Vicryl suture were immersed in tubing with endotoxin solution (SRW, Concentration: 3980 EU/mL) for 10 minutes at a time at ambient temperature. The sutures were air dried for 20 minutes in a vented chemical hood and then placed in round bottom and dried The suture was then immersed into Ethyl Acetate (EtAc) containing CaSt, vortexed briefly for 10 seconds, dried for 20 minutes in a vented chemical hood, and extracted in endotoxin free water at ambient temperature. The suture extracted in endotoxin free water (LRW) was then tested for LPS using the Kinetic Chromogenic Method for Endotoxin Quantitation, Charles River Laboratories, Charleston S.C.

[3] = Suture testing in ethanol, cyclohexane, isopropanol with 1% CaSt; details: for Endotoxin Detected: control suture 68.1 EU
Protocol: Similarly to the testing above, an absorbable suture of the same type, similarly contaminated, was exposed to CaSt in three solvents (ethanol, cyclohexane, isopropanol). The suture was then tested for LPS. […] In presence of CaSt 1% suspension (CaSt could be slightly soluble in the solvents), LPS activity decreased by 75-95%.
Sutures used were 27 inch long pieces of absorbable lactide-glycolide sutures. Endotoxin sources used were Stagnant Rain Water (SRW) and LRW (3980 EU/mL). 7 strands of suture were placed in tubing with endotoxin solution for 10 minutes at a time. The sutures were dried for 20 minutes and then placed in round bottom tubes. […] 1 suture was placed in each tube and vortexed in this solution for approximately 10 seconds. The sutures were removed and allowed to dry for 20 minutes and then placed in round bottom tubes. This was done for 6 sutures. 1 piece of suture, serving as the control, was not submerged in any solutions and placed in test tubes. 3 mL of LAL reagent water was added to each test tube, vortexed vigorously, and then placed in a hot water bath at 37° C. for 1 hour. They were then removed, vortexed vigorously, diluted, and tested on the MCS system.

[4] = Wound dressing (fibrin pad) testing in cyclohexane containing CaSt; details: dressing spiked with 8.9 EU, 15 minutes in 10 mL cyclohexane with 0.1 g CaSt
Protocol: A wound dressing containing dry fibrinogen and dry thrombin on an absorbable support was tested as follows. The pad was spiked with LPS and then exposed to cyclohexane containing CaSt to determine the effect on detectable LPS.
Three 1×2 inch pieces of the dressing were spiked with endotoxin resulting in 8.9 EU of LPS. The pieces were allowed to dry for 20 minutes, then placed into 50 mL polypropylene conical tubes. 7.5 mL of LAL reagent water+2.5 mL 0.25M tris buffer was added to Tube 1. 10 mL of cyclohexane with 0.1 g of CaSt was added to Tube 2. 10 mL of cyclohexane was added to Tube 3. The tubes were closed and then placed on the bottle roller rotator machine for 15 minutes so that the tube could continuously roll and the dressing was constantly in contact with liquid.
Tube 1 solution was then diluted and tested for endotoxin on the MCS system. The fibrin pad pieces from Tube 2 and Tube 3 were removed and placed in new tubes and extracted in 7.5 mL of LAL reagent water+2.5 mL 0.25M tris buffer. The solutions were then tested on the MCS system for endotoxin (LPS).

[5] = Kinetics of removal of LPS with different agitation techniques and stearate salts; details: for Endotoxin Detected: 5 mL SRW, baseline 1,502 EU; for Percent (%) Removed: SRW baseline 1,502 EU
Protocol: 5 mL of SRW was added to each of the tubes. Each solution was tested for endotoxin removal after agitation based on with sonication, vortexing, or test tube rolling. Sonication samples were sonicated at each indicated time interval for 30 seconds at a magnitude of 30. Vortex samples were vortexed at each indicated time interval for 30 seconds at 2500 RPM. Rolling samples were constantly rolling at 10 rpm. The samples were tested on the MCS for endotoxin at 1 minute, 20 minutes, 40 minutes, 60 minutes, and 80 minutes.

Calcium Stearate
Endotoxin Detected ([1]; Water with 5% Calcium Stearate, solution tested after suture removal): <1.0 EU | Average Change in Endotoxin Level ([1]; sutures 4-6 in LAL Water w/5% Calcium Stearate vs. sutures not submerged): −96.1% | Average Endotoxin Detected ([1]; sutures 4-6 in LAL Water w/5% Calcium Stearate, untreated average 84 EU): 3.27 EU | Endotoxin Detected [2]: 23.4 EU and 21.78 EU and 25.62 EU | LPS activity decreased by ([3]; CaSt 1% suspension in ethanol, cyclohexane, isopropanol): 75-95% | Change in Endotoxin Level ([3]; suture in Cyclohexane w/1% Calcium Stearate (0.0858 g) vs. control suture): −94.1% | Endotoxin Detected ([3]; suture in Cyclohexane w/1% Calcium Stearate (0.0858 g)): 4.02 EU | Change in Endotoxin Level ([3]; suture in Ethanol w/1% Calcium Stearate (0.0827 g) vs. control suture): −77.9% | Endotoxin Detected ([3]; suture in Ethanol w/1% Calcium Stearate (0.0827 g)): 15.06 EU | Change in Endotoxin Level ([3]; suture in Isopropanol w/1% Calcium Stearate (0.0841 g) vs. control suture): −75.6% | Endotoxin Detected ([3]; suture in Isopropanol w/1% Calcium Stearate (0.0841 g)): 16.59 EU | Endotoxin detected on Pad [4]: 1.8 EU | Percent Endotoxin detected as compared to Tube 1 [4]: 20.2% | Endotoxin detected on Pad ([4]; listed as CaSt): 2 EU | Endotoxin Detected ([5]; Rolling, 1 minute): 1,230 EU | Percent (%) Removed ([5]; Rolling, 1 minute): 18.1% | Endotoxin Detected ([5]; Rolling, 20 minutes): 1,050 EU | Percent (%) Removed ([5]; Rolling, 20 minutes): 30.1% | Endotoxin Detected ([5]; Rolling, 40 minutes): 630 EU | Percent (%) Removed ([5]; Rolling, 40 minutes): 58.1% | Endotoxin Detected ([5]; Rolling, 60 minutes): 637 EU | Percent (%) Removed ([5]; Rolling, 60 minutes): 57.6% | Endotoxin Detected ([5]; Rolling, 80 minutes): 451 EU | Percent (%) Removed ([5]; Rolling, 80 minutes): 70% | Endotoxin Detected ([5]; Sonication, 1 minute): 270 EU | Percent (%) Removed ([5]; Sonication, 1 minute): 82% | Endotoxin Detected ([5]; Sonication, 20 minutes): 130 EU | Percent (%) Removed ([5]; Sonication, 20 minutes): 91.3% | Endotoxin Detected ([5]; Sonication, 40 minutes): 87.5 EU | Percent (%) Removed ([5]; Sonication, 40 minutes): 94.2% | Endotoxin Detected ([5]; Sonication, 60 minutes): 56.9 EU | Percent (%) Removed ([5]; Sonication, 60 minutes): 96.2% | Endotoxin Detected ([5]; Sonication, 80 minutes): 16.4 EU | Percent (%) Removed ([5]; Sonication, 80 minutes): 98.9% | Endotoxin Detected ([5]; Vortexing, 1 minute): 451 EU | Percent (%) Removed ([5]; Vortexing, 1 minute): 70% | Endotoxin Detected ([5]; Vortexing, 20 minutes): 301 EU | Percent (%) Removed ([5]; Vortexing, 20 minutes): 80% | Endotoxin Detected ([5]; Vortexing, 40 minutes): 139 EU | Percent (%) Removed ([5]; Vortexing, 40 minutes): 90.7% | Endotoxin Detected ([5]; Vortexing, 60 minutes): 173 EU | Percent (%) Removed ([5]; Vortexing, 60 minutes): 88.5% | Percent (%) Removed ([5]; Vortexing, 80 minutes): 93.1%
